Square brackets hold non-standard residues; d marks the D form. Peptide text beside a SMILES is read from it. d2Nal = N[C@H](Cc1ccc2ccccc2c1)C(=O)O
Assays:
mMC5R = mMC5R (Mus musculus, UniProt P41149); assay: mMC5R | Agonist EC50 (nM)
Protocol: Table printed on a drawing sheet, Figure 23
The cAMP signaling potency was determined by AlphaScreen® assays. The reported errors are the standard error of the mean (SEM) determined from at least three independent experiments. Changes less than 3-fold were considered to be within the inherent experimental assay error. NS means compound was not soluble in bioassay compatible solvent.

hMC4R [1] = molecular target: T1, hMC4R (Homo sapiens, UniProt P32245); assay: AlphaScreen cAMP functional bioassay, hMC4R; assay type: cell-based; details: HEK293 cells stably expressing hMC4R
T1 construct: Flag; expressed in transfected cells
Protocol: Upon agonist stimulation, melanocortin receptors are known to signal through a Gαs-protein mediated signaling pathway that results in intracellular cAMP accumulation.
Stable populations were selected for using G418 selection (0.7-1.0 mg/mL) and used in bioassays unless indicated otherwise. In vitro experimental ligands were dissolved to a 10^−2 M stock in DMSO and stored at −20° C. Subsequent dilutions were performed in each assay's specific buffer to achieve the final concentration in the well. The ligands were assayed as TFA salts.
AlphaScreen cAMP Functional Bioassay
The AlphaScreen® assay was performed as described by manufacturer.
Cells were removed from plates using Gibco® Versene solution and pelleted by centrifugation (Sorvall Super T21 high speed centrifuge, swinging bucket rotor) at 800 rpm for five minutes. […] A 10 μL aliquot of cell suspension was counted manually using a hemocytometer after addition of Trypan blue dye (BioRad). Cells were again pelleted by centrifugation, and DPBS was gently aspirated. The pelleted cells were then resuspended in a solution of freshly made stimulation buffer (Hank's Balanced Salt Solution [HBSS 10× [−] sodium bicarbonate] and [−] phenol red, Gibco®], 0.5 mM isobutylmethylxanthine [IBMX], 5 mM HEPES buffer solution [1M, Gibco®], 0.1% bovine serum albumin [BSA] in Milli-Q water, pH=7.4) and anti-cAMP acceptor beads (1.0 unit per well, AlphaScreen®). […] The cells were then stimulated with ligand diluted in stimulation buffer to achieve their final concentrations in the well ranging from 10^−13 to 10^−4 M. The stimulated plates were incubated in a dark laboratory drawer at room temperature for two hours.
Meanwhile, a biotinylated cAMP/streptavidin donor bead working solution was made by adding biotinylated cAMP (1 Unit/well, AlphaScreen®) and streptavidin donor beads (1 Unit/well, AlphaScreen®) to a lysis buffer (10% Tween-20, 5 mM HEPES buffer solution [1M, Gibco®], 0.1% bovine serum albumin [BSA] in Milli-Q water, pH=7.4). After the two hour stimulation, the biotinylated cAMP/Streptavidin donor bead working solution was added to each well under green light and mixed well by pipetting up and down. The cells were incubated for another two hours at room temperature in a dark drawer at room temperature. The plate was then read on an EnSpire™ Alpha plate reader using a pre-normalized assay protocol set by the manufacturer. Assays were performed with duplicate data points on each plate and repeated in at least three independent experiments.
Dose response curves were analyzed using the PRISM program (v4.0; GraphPad Inc.).
Target sequence in this assay (P32245 whole entry): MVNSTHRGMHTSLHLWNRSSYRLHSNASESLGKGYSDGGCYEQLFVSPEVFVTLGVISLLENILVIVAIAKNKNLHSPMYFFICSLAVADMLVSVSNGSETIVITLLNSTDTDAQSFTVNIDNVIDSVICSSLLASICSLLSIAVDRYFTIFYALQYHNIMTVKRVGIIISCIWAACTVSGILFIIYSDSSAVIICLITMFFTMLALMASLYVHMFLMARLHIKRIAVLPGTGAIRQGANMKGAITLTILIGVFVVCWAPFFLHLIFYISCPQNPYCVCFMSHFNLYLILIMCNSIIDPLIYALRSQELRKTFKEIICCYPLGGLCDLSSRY

hMC4R [2] = molecular target: T1, hMC4R; assay: PRESTO-Tango β-arrestin recruitment assay; assay type: cell-based
Protocol: The PRESTO-Tango technology is an open-source resource that has been utilized to identify ligands for orphan receptors based on β-arrestin recruitment.
The plasmids and assay technology was kindly provided by the Bryan Roth laboratory (University of North Carolina at Chapel Hill) and are now available through ADDGENE (Kit # 1000000068).
The first day of the assay, HTLA cells were plated at approximately 1×10^6 cells per 10 cm plate and grown to 20-40% confluency. […] The third day, cells were removed from 10 cm plates using Gibco® Versene solution and pelleted by centrifugation (Sorvall Super T21 high speed centrifuge, swinging bucket rotor) at 800 rpm for five minutes at room temperature. Cells were manually counted on a hemocytometer and resuspended in 1% dialyzed FBS and 1% penicillin/streptomycin in DMEM to a final concentration of 400,000 cells/mL. […] Stimulated cells were incubated for 18 hours in 5% CO2 at 37° C. On the fifth day, the assay buffer and cell medium was removed by aspiration. […] After incubation, luminescence was then read on an EnSpire™ Alpha plate reader using a pre-normalized assay protocol for luminescence set by the manufacturer. Dose response curves were analyzed using the PRISM program (v4.0; GraphPad Inc.).
Target sequence in this assay (P32245 whole entry): as above

hMC4R [3] = molecular target: T1, hMC4R; assay: cAMP Signaling | EC50 (nM)
Protocol: Table printed on a drawing sheet, Figure 20
The cAMP signaling potency was determined by AlphaScreen™ assays. […] The reported errors are the standard error of the mean (SEM) determined from at least three independent experiments. Changes less than 3-fold were considered to be within the inherent experimental assay error.
Target sequence in this assay (P32245 whole entry, looked up): as the sequence (P32245 whole entry) above

hMC4R [4] = molecular target: T1, hMC4R; assay: β-Arrestin Recruitment | EC50 (nM)
Target sequence in this assay (P32245 whole entry, looked up): as the sequence (P32245 whole entry) above

mMC5R, sequence (P41149 whole entry, looked up): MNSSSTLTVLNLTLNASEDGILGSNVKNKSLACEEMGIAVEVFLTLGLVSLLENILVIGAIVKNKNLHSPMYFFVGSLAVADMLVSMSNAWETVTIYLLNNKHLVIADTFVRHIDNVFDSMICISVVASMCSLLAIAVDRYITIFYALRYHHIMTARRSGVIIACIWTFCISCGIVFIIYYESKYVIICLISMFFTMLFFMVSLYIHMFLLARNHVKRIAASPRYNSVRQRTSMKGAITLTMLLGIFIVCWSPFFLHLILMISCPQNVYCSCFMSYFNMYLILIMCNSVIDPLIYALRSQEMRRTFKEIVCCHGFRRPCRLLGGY

## CC(=O)N[C@@H](Cc1c[nH]cn1)C(=O)N[C@H](Cc1ccccc1)C(=O)N[C@@H](CCCNC(=N)N)C(=O)N[C@@H](Cc1c[nH]c2ccccc12)C(N)=O [CJL-1-14, Ac-His-DPhe-Arg-Trp-NH2]
mMC5R
  EC50: 9.8 ± 2.7 nM

## CC(=O)N[C@@H](Cc1c[nH]cn1)C(=O)N[C@H](Cc1ccc2ccccc2c1)C(=O)N[C@@H](CCCNC(=N)N)C(=O)N[C@@H](Cc1c[nH]c2ccccc12)C(=O)N1CCC[C@H]1C(=O)NCC(=O)N1CCC[C@H]1C(=O)NCC(=O)N1CCC[C@H]1C(=O)NCC(=O)N1CCC[C@H]1C(=O)NCC(=O)N1CCC[C@H]1C(=O)NCC(=O)N1CCC[C@H]1C(=O)NCC(=O)N[C@@H](Cc1c[nH]cn1)C(=O)N[C@H](Cc1ccccc1)C(=O)N[C@@H](CCCNC(=N)N)C(=O)N[C@@H](Cc1c[nH]c2ccccc12)C(N)=O [CJL-1-63, Ac-His-DNal(2′)-Arg-Trp-(Pro-Gly)6-His-DPhe-Arg-Trp-NH2] (Ac-H[d2Nal]RWPGPGPGPGPGPGH[dF]RW-NH2)
hMC4R [1]
  cAMP agonist potency (in words): single digit nanomolar agonists
hMC4R [2]; at 10 μM
  β-arrestin response compared to maximal efficacy of NDP-MSH: 55%
hMC4R [3]
  EC50: 1.9 ± 0.2 nM

## N=C(N)NCCC[C@H](NC(=O)[C@@H](Cc1ccccc1)NC(=O)[C@H](Cc1c[nH]cn1)NC(=O)COCC(=O)NCCCOCCOCCOCCCN)C(=O)N[C@@H](Cc1c[nH]c2ccccc12)C(N)=O [CJL-1-116]
hMC4R [2]; vs tetrapeptide CJL-1-14
  fold increase in β-arrestin recruitment compared to CJL-1-14: < 3 fold
hMC4R [3]
  EC50: 2 ± 0.3 nM
hMC4R [4]
  EC50: 140 ± 70 nM
